Measured values published in patent publication US10208288B2, “Differentiation of human embryonic stem cells into pancreatic endocrine cells” (Janssen Biotech, Inc., priority 2012, dated 2019).

System: cells of the human embryonic stem cell line H1 differentiated to stage 6
Assay: Phase contrast imaging of endocrine cluster formation in stage 6 cultures
Type: cell-based
Procedure: Cells of the human embryonic stem cell line H1 (hESC H1, passage 40) were seeded as single cells at 1×10^5 cells/cm^2 on MATRIGEL™ (1:30 dilution; BD Biosciences, NJ) coated dishes in mTeSR®1 media (StemCell Technologies, Vancouver, Canada) supplemented with 10 μM of Y27632. Forty-eight hours post seeding, cultures were washed in incomplete PBS (phosphate buffered saline without Mg or Ca). Cultures were differentiated into pancreatic endoderm/endocrine lineages as follows: • a) Stage 1 (Definitive Endoderm (DE)—3 days): Cells were cultured for one day in stage 1 media (see Example 1, above). Cells were then cultured for an additional day in MCDB-131 medium supplemented with 0.1% fatty acid-free BSA, 0.0012 g/ml sodium bicarbonate, 1× GlutaMax™, 4.5 mM D-Glucose, 100 ng/ml GDF8, and 0.1 μM MCX compound. Cells were then cultured for an additional day in MCDB-131 medium supplemented with 0.1% fatty acid-free BSA, 0.0012 g/ml sodium bicarbonate, 1× GlutaMax™, 4.5 mM D-Glucose, and 100 ng/ml GDF8, then • b) Stage 2 (Primitive gut tube—2 days): Cells were treated for two days with MCDB-131 medium supplemented with 0.1% fatty acid-free BSA; 0.0012 g/ml sodium bicarbonate; 1× GlutaMax™; 4.5 mM D-Glucose; 0.25 mM ascorbic acid (Sigma, Mo.) and 25 ng/ml FGF7 (R & D Systems, MN), then • c) Stage 3 (Foregut—2 days): Cells were treated with MCDB-131 medium supplemented with a 1:200 dilution of ITS-X (Invitrogen, Ca); 4.5 mM Glucose; 1× GlutaMax™; 0.0017 g/ml sodium bicarbonate; 2% fatty acid-free BSA; 0.25 μM SANT-1 (Sigma, Mo.); 10 ng/ml of Activin-A (R& D Systems, MN); 1 μM RA (Sigma, Mo.); 25 ng/ml FGF7; 0.25 mM ascorbic acid; 200 nM TPB (PKC activator; Catalog No. 565740; EMD Chemicals, Gibstown, N.J.); 10 μM forskolin (FSK, Sigma, Mo.), and 100 nM LDN (BMP receptor inhibitor; Catalog No. 04-0019; Stemgent, Calif.) for day 1. […]

CCCCCCCCCCCCC/C=C/[C@@H](O)[C@@H](N)COP(=O)(O)O [S1P, sphingosine-1-phosphate]
time at which endocrine clusters emerged after start of stage 6 (10 μM added for three days at stage 6, FIG. 6A, 6B): 3 days
formation of clusters earlier than in control cultures (10 μM at stage 6, vs control cultures): about 7 days
clustering of endocrine cells (S6 cultures, day 7, phase contrast, FIG. 4B): clear evidence of clustering of endocrine cells
appearance of endocrine clusters (S6 cultures, day 10, phase contrast, FIG. 4C, 4D): clusters were separated from each other by a thin layer of pancreatic endoderm epithelium
